Target: T1, full-length ATR (Homo sapiens, UniProt Q13535)
T1 construct: Assays were carried out at 25° C. in the presence of 5 nM full-length ATR
Assay: ATR Inhibition Assay (radioactive-phosphate incorporation)
Assay type: biochemical
Details: not given

T1 sequence (Q13535 whole entry): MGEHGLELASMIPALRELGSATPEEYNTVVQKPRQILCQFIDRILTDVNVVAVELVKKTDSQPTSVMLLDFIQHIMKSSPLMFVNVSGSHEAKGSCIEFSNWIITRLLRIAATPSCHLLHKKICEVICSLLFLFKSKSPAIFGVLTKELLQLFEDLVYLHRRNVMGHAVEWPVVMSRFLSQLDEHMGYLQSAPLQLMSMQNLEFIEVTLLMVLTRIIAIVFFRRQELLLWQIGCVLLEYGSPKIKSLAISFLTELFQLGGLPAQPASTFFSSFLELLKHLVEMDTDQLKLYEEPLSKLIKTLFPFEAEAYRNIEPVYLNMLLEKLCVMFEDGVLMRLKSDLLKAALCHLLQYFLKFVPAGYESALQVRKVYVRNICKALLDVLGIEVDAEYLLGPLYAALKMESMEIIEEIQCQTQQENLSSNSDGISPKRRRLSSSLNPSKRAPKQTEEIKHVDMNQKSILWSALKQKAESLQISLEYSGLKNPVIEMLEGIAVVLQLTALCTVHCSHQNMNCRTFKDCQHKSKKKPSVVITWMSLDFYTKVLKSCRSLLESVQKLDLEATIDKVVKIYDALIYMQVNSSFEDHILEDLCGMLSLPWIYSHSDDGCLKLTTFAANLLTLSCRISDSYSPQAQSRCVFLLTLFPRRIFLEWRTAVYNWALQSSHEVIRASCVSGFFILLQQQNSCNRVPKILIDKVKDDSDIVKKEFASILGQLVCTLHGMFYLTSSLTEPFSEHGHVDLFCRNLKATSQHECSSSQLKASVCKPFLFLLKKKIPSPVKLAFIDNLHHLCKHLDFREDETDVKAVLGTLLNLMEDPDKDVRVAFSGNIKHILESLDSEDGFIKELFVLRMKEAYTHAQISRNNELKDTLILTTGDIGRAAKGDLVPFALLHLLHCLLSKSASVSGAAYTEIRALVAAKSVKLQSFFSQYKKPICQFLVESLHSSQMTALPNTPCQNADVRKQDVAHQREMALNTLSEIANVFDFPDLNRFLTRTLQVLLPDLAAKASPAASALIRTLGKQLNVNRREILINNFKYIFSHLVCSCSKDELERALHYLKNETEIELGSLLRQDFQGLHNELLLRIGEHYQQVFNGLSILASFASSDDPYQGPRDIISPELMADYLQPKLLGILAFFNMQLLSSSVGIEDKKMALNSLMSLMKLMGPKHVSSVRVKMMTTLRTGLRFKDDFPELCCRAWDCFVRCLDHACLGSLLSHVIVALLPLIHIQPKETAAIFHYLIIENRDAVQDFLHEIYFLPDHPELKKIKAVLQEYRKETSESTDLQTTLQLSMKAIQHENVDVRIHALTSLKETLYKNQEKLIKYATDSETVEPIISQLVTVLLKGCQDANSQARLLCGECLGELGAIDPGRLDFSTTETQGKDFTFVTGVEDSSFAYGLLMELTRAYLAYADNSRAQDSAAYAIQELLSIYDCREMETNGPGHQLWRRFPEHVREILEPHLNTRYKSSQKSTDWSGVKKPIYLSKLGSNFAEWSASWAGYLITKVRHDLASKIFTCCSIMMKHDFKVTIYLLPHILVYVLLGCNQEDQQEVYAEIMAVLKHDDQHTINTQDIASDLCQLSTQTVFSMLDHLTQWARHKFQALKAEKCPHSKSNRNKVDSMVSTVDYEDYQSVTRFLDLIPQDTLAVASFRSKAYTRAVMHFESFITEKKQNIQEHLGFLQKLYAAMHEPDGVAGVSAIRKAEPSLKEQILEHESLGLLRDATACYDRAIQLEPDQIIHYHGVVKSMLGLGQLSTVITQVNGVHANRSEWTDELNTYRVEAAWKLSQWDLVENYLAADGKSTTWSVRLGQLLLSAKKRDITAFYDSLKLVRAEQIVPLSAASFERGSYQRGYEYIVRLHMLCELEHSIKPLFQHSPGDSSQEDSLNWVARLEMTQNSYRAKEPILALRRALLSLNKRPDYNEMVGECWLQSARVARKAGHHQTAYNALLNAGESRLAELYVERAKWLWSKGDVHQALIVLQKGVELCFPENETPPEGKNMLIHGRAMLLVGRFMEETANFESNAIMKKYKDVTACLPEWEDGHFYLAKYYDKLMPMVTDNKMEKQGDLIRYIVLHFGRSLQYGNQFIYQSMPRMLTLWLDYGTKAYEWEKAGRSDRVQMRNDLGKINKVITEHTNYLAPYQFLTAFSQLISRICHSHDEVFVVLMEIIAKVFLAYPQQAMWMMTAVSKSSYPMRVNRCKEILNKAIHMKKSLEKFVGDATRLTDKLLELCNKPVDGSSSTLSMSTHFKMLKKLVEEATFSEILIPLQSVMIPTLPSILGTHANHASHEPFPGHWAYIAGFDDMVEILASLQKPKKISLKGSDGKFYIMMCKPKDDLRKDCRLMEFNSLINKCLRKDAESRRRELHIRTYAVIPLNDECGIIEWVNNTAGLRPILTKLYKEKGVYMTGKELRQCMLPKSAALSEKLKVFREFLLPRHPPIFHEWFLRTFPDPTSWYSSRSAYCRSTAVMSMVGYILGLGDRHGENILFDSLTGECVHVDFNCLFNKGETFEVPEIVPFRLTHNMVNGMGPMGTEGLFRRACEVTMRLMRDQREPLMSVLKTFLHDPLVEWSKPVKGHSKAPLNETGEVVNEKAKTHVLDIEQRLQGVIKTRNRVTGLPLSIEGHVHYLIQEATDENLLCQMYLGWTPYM

Ki [nM] | Structure (SMILES)
< 1 | CNCCNc1ccc(-c2nnc(-c3nc(-c4ccnc(C(C)(C)C#N)c4)cnc3N)o2)cc1 [Compound I-117]
< 1 | CN1CC(Oc2ccc(-c3nnc(-c4nc(-c5ccnc(C(C)(C)C#N)c5)cnc4N)o3)cc2)C1 [Compound I-121]
< 1 | CC(C)(C#N)c1cc(-c2cnc(N)c(-c3nnc(-c4ccc(CNC5CCCOC5)cc4)o3)n2)ccn1 (centres unmarked) [Compound I-122]
< 1 | CC(C)(C#N)c1cc(-c2cnc(N)c(-c3nnc(-c4ccc(N5CC(N)C5)cc4)o3)n2)ccn1 [Compound I-123]
< 1 | CC(C)(C#N)c1cc(-c2cnc(N)c(-c3nnc(-c4ccc(CNC5CCOCC5)cc4F)o3)n2)ccn1 [Compound I-124]
5 to 20 | CC(C)(C#N)c1cc(-c2cnc(N)c(-c3nnc(-c4cccc(N5CCC(N)CC5)c4)o3)n2)ccn1 [Compound I-125]
< 1 | CC(C)(C#N)c1cc(-c2cnc(N)c(-c3nnc(-c4ccc(CNC5CCOCC5)cc4)o3)n2)ccn1 [Compound I-126]
< 1 | CC(C)(C#N)c1cc(-c2cnc(N)c(-c3nnc(-c4ccc(C5=CCNCC5)cc4)o3)n2)ccn1 [Compound I-128]
< 1 | CC(N)CNc1ccc(-c2nnc(-c3nc(-c4ccnc(C(C)(C)C#N)c4)cnc3N)o2)cc1 (centres unmarked) [Compound I-130]
< 1 | CN(C)C1CN(c2ccc(-c3nnc(-c4nc(-c5ccnc(C(C)(C)C#N)c5)cnc4N)o3)cc2)C1 [Compound I-131]
< 1 | COc1ccccc1-c1nnc(-c2nc(-c3ccnc(C4(C#N)CCNCC4)c3)cnc2N)o1 [Compound I-133]
< 1 | Nc1ncc(-c2ccnc(CO)c2)nc1-c1cc(-c2ccc(CNC3CCOCC3)cc2)no1 [Compound I-135]
< 1 | N#CCc1cc(-c2cnc(N)c(-c3cc(-c4ccc(CNC5CCOCC5)cc4)no3)n2)ccn1 [Compound I-136]
< 1 | N#CCc1cc(-c2cnc(N)c(-c3nnc(-c4ccc(CNC5CCOCC5)cc4)o3)n2)ccn1 [Compound I-137]
5 to 20 | CC(C)(C#N)c1nccc(-c2cnc(N)c(-c3cc(-c4ccc(CNCC5COC5)cc4)no3)n2)c1F [Compound I-139]

Same assay, conditions: Ki(app); 5 nM full-length ATR, 10 μM [γ-33P]ATP, 800 μM target peptide, 25° C.

Structure (SMILES) | ATR Ki
CC(C)(C#N)c1cc(-c2cnc(N)c(-c3nnc(-c4ccc(N5CCC5)cc4)o3)n2)ccn1 [Compound I-118] | +++ (Compounds with a Ki value >5 nM but ≦1 nM are marked with “+++.”)
CC(C)(C#N)c1cc(-c2cnc(N)c(-c3nnc(-c4ccc(C5=NCCN5)cc4)o3)n2)ccn1 [Compound I-129] | +++ (Compounds with a Ki value >5 nM but ≦1 nM are marked with “+++.”)
CCCN(CCOC)C(=O)c1cc(-c2cnc(N)c(-c3cc(-c4ccccc4)no3)n2)ccn1 [Compound I-132] | +++ (Compounds with a Ki value >5 nM but ≦1 nM are marked with “+++.”)
CC(C)(C#N)c1cc(-c2cnc(N)c(-c3nnc(-c4ccc(F)cc4F)o3)n2)ccn1 [Compound I-134] | +++ (Compounds with a Ki value >5 nM but ≦1 nM are marked with “+++.”)
CC(C)(C#N)c1nccc(-c2cnc(N)c(-c3cc(-c4ccc(CNC5CCOCC5)cc4)no3)n2)c1F [Compound I-138] | +++ (Compounds with a Ki value >5 nM but ≦1 nM are marked with “+++.”)

Source: US8877759B2, “Aminopyrazines as ATR kinase inhibitors” (Vertex Pharnaceuticals Incorporated, priority 2011, dated 2014)
